Source: article PMC3526597, “High-Glucose-Induced Endothelial Cell Injury Is Inhibited by a Peptide Derived from Human Apolipoprotein E” (PLoS ONE, 2012)
Peptide text beside a SMILES is read from it.

Assay: Corneal penetration assay (aqueous humor level after eye drop)
Assay type: in vivo, mouse
Details: for Total / Measure concentration: mouse aqueous humor, UPLC-MS; for Measure concentration: sample mixed with 1 ml 0.1% formic acid
Method: The apoEdp peptide (LRKLRKRLLLRKLRKRLL) is rich in cationic amino acids lysine and arginine. ApoEdp is more cationic than HIV-1 Tat cell penetrating peptide (Table 1). We hypothesized that apoEdp could act as a corneal penetrating peptide.
Mouse eyes were treated with 1% apoEdp drops. At 0, 1, 2, 3, hours post-treatment, mice were sacrificed and eyes were enucleated. The globes were washed with sterile PBS three times and aqueous humor was aspirated using a 27-gauge needle and 1 mL syringe. The mouse aqueous humor samples were mixed with 1 ml of 0.1% formic acid solution and allowed to stand for 5 minutes. The samples were filtered with a 0.2-micron filter and analyzed using a Waters Acquity UPLC system (Milford, MA) with mass spectrophotometrical detection. […] These peaks included 483.9 m/z 604.4 m/z, and 805.6 m/z. We used the […] peak for the analysis because it was the strongest. For the UPLC analysis, we used a BEH300 C4 column 2.1 mm×100 mm×1.7 µm. A 2 component mobile phase was used with component 1:0.1% formic Acid, and Component 2: Acetonitrile with 0.1% formic acid. The flow rate was 0.2 ml/min and gradient elution was used with a linear gradient.

[1] = 2 hours after 1% apoEdp eye drop, left eye
[2] = 2 hours after 1% apoEdp eye drop, right eye
[3] = 3 hours after 1% apoEdp eye drop, left eye
[4] = 3 hours after 1% apoEdp eye drop, right eye

## CC(=O)N[C@@H](CC(C)C)C(=O)N[C@@H](CCCNC(=N)N)C(=O)N[C@@H](CCCCN)C(=O)N[C@@H](CC(C)C)C(=O)N[C@@H](CCCNC(=N)N)C(=O)N[C@@H](CCCCN)C(=O)N[C@@H](CCCNC(=N)N)C(=O)N[C@@H](CC(C)C)C(=O)N[C@@H](CC(C)C)C(=O)N[C@@H](CC(C)C)C(=O)N[C@@H](CCCNC(=N)N)C(=O)N[C@@H](CCCCN)C(=O)N[C@@H](CC(C)C)C(=O)N[C@@H](CCCNC(=N)N)C(=O)N[C@@H](CCCCN)C(=O)N[C@@H](CCCNC(=N)N)C(=O)N[C@@H](CC(C)C)C(=O)N[C@@H](CC(C)C)C(N)=O [apoEdp] (Ac-LRKLRKRLLLRKLRKRLL-NH2)
Applied topically (1% eye drop), mouse eyes
  time to reach the anterior chamber of the eye: ≤ 3 h
[1]
  Total: 3.89 ng
  Measure concentration: 0.004 µg/mL
[2]
  Total: 5.9 ng
  Measure concentration: 0.006 µg/mL
[3]
  Total: 58.08 ng
  Measure concentration: 0.058 µg/mL
[4]
  Total: 36.3 ng
  Measure concentration: 0.036 µg/mL
